Data taken from patent US5603917A, “Methods for the in vivo measurement of the concentration of NMR-detectable xenobiotic compounds” (Bracco International B. V., priority 1994, dated 1997).
“And” between values parts separate entries of the source, which are not always exact repeats. Equal values may be shown once.

How the values were obtained:
[1] = Blood sampling with in vitro assay of ^153 Gd-labeled ProHance® and ^99m Tc(DTPA), elimination from rat blood pool (validation experiment); assay type: in vivo; settings: rats #5 to #7; blood samples; simultaneous intravenous injection; same values obtained for ^153 Gd and ^99m Tc
Method: (§1) Runs involving simultaneous intravenous injection administrations of 0.5 mmol/kg ProHance®, ^153 Gd-labeled ProHance® and ^99m Tc(DTPA) (Techneplex™, technetium-diethylenetriamine pentaacetic acid), the latter to determine glomerular filtration rate by in vitro methods as a validation experiment, were also carried out. In these runs, rat blood samples and tail T1 data were acquired at the same time intervals from the same rat, and with multiple subjects (n=3). The blood samples were assayed in vitro to determine the amounts of ^153 Gd-labeled ProHance® and ^99m Tc(DTPA) in the blood, and the percentage changes in the blood pool concentrations of ^153 Gd-labeled ProHance® and ^99m Tc(DTPA) were plotted as a function of time to obtain the T1/2 values. The T1/2 data were also calculated from the slopes of the log(1/T1 -1/T10) versus time plots. These two sets of rat T1/2 data are shown in Table 1, and are also compared in FIG. 2.

[2] = In vivo proton T1 measurement at rat tail, elimination of ProHance® (kidney status); settings: intravenous 0.5 mmol/kg ProHance®, 20 MHz, 0.5 Tesla, 40° C.
Method: The measurement site was the tail of the subject rat, which was hung into the sample tube of a Brucker/IBM PC 20 Spin Analyzer (commerically available).
Rat proton T1 data were recorded both before and after intravenous injection of 0.5 mmol/kg ProHance®. The T1 measurements were made by the inversion-recovery method (Fukushima et al., Experimental Pulse NMR, a Nuts and Bolts Approach (Addison-Wesley 1981)) at 20 MHz and 0.5 Tesla at 40° C. with the IBM PC 20 relaxometer by sampling the section of the rat tail about 10 mm from the tip. The proton T1 change upon the injection of ProHance® was followed for 2 hours at 5 minute intervals after injection. The logarithms of the differences in the T1 relaxation rate (reciprocal of T1 relaxation time) before and after injection, log(1/T1 -1/T10), were plotted as a function of time. The elimination halftimes (T1/2) were calculated from the slopes of the log plots. The proton T1 data of a nephrectomized rat were also collected and used for comparison with the behaviour of normal rats (see FIG. 1).
as §1

[3] = normal rats #1 to #7, one value per rat, 2 hours at 5 minute intervals

technetium-diethylenetriamine pentaacetic acid [^99m Tc(DTPA)]
Elimination Halftime T1/2 From ^153 Gd and ^99m Tc [1]: 31 min

CC(O)CN1CCN(CC(=O)[O-])CCN(CC(=O)[O-])CCN(CC(=O)[O-])CC1.[Gd+3] (stereo not drawn) [ProHance®, Gd-hydroxypropyl tetraazacylododecanetriacetic acid]
Elimination Halftime T1/2 From Slope ([2]; nephrectomized rat): 2,000 ± 4,000 min. | Slope of Log (1/T1 - 1/T10) vs Time Plot ([2]; nephrectomized rat): 0.0003 ± 0.0006 | Elimination Halftime T1/2 From Slope [2, 3]: 35 ± 5 min and 32 ± 2 min and 25 ± 4 min and 30 ± 3 min and 36 ± 2 min and 20 ± 2 min | Slope of Log (1/T1 - 1/T10) vs Time Plot [2, 3]: 0.0093 ± 0.0006 and 0.012 ± 0.0020 and 0.010 ± 0.0012 and 0.0083 ± 0.0005 and 0.015 ± 0.0016 and 0.0087 ± 0.0012

CC(O)CN1CCN(CC(=O)[O-])CCN(CC(=O)[O-])CCN(CC(=O)[O-])CC1.[Gd+3] (stereo not drawn) [^153 Gd-labeled ProHance®]
Elimination Halftime T1/2 From ^153 Gd and ^99m Tc [1]: 31 min
